Several values for one entry are separate records, joined by “and”; a condition that tells them apart may be missing. Equal values may be shown once.
Legend:
CES1 [1] = target: T1, CES1 (Homo sapiens, UniProt P23141); assay: Esterase activity of HepG2 cell lysate in presence of S-3030; assay type: biochemical
T1 sequence (P23141 18-567): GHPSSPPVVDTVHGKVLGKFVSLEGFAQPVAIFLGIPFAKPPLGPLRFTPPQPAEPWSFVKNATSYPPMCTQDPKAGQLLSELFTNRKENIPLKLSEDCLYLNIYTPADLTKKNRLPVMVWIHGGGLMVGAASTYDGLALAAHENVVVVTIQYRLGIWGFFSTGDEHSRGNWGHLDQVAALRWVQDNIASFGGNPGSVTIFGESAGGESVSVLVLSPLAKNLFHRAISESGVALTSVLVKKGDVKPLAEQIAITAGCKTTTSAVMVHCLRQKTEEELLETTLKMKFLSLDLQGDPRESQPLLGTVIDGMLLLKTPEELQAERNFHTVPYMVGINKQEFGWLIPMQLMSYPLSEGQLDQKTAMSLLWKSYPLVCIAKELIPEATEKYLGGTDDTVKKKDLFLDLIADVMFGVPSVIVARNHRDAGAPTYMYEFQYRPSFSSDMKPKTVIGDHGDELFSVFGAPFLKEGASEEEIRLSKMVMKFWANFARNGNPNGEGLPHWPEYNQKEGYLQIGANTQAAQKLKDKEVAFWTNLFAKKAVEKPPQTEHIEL

HepG2 cells = assay: Inhibition and recovery of esterase activity in intact HepG2 cells; assay type: cell-based
FAAH = conditions: rat brain membranes; cited from earlier work
CES1 [2] = target: T1, CES1; assay type: biochemical
rat ortholog of CES1 = conditions: cited from earlier work
recombinant human CES2 = target: T2, recombinant human CES2 (Homo sapiens, UniProt O00748); assay: Inactivation kinetics of recombinant CES2, pNPV hydrolysis progress curves; assay type: biochemical; conditions: CES1 and MAGL versus CES2
T2 sequence (O00748 27-559): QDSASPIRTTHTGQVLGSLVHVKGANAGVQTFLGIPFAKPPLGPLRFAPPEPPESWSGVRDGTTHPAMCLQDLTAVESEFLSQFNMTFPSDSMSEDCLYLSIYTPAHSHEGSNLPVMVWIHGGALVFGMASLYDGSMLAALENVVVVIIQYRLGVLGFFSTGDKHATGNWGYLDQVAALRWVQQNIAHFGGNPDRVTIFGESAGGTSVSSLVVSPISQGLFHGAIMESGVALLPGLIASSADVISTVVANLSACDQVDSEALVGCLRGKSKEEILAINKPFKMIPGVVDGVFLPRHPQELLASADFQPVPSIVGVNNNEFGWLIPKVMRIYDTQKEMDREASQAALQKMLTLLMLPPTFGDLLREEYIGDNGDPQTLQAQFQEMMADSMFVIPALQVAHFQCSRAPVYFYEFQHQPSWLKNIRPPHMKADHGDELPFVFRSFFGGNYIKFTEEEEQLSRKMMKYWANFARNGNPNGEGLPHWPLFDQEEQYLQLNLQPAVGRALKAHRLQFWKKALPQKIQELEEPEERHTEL

MAGL = conditions: mouse brain membrane proteome; cited from earlier work
CES1 [3] = target: T1, CES1; assay: Inactivation kinetics of recombinant CES1, pNPV hydrolysis progress curves; assay type: biochemical; conditions: comparison with oxon values of ref 24

In the case of O=C1C(=O)c2sccc2-c2ccsc21 [S-3030, Thieno[3,2-e][1]benzothiophene-4,5-dione], the “esterase activity sensitive to S-3030-mediated inhibition” value (CES1 [1]; activity recovered by 48 hr following URB597 treatment (data not shown)) is reported as 74% and the “share of esterase activity accounted for by CES1 (S-3030 sensitive)” value (CES1 [1]; untreated HepG2 cell lysate, 10 μM S-3030, pNPV substrate) is reported as 71.5±2.1%.
For NC(=O)c1cccc(-c2cccc(OC(=O)NC3CCCCC3)c2)c1 [URB597], the “esterase activity, % of the control activity” value (HepG2 cells; 10 μM, 30 min treatment, recovery over 48 hr) is listed as 50%, the inhibition at 10 µM (HepG2 cells; Homo sapiens, HepG2, 0.5 h, read-out: inhibition of esterase activity) is listed as at least 90% and the IC50 (FAAH) is listed as 4.6 nM. The “t1/2 (half life of reactivation)” value (CES1 [2]) was 11 h and 11 ± 4^a h.
In the case of CNC(=O)Oc1cccc2ccccc12 [carbaryl], the “ki (bimolecular rate constant)” value (rat ortholog of CES1) is given as 856 M⁻¹ s⁻¹.
In the case of O=C(Oc1ccc([N+](=O)[O-])cc1)N1CCC(C(O)(c2ccc3c(c2)OCO3)c2ccc3c(c2)OCO3)CC1 [JZL184], the “bimolecular rate constants for CES1 and MAGL greater than for CES2” value (recombinant human CES2) is given as 17-38 fold, the IC50 (MAGL) is given as […] and the “esterase activity remained depressed” value (HepG2 cells; 10 μM, 30 min treatment, over 48 hr after treatment) is given as ~ 90%. The “inhibition of esterase activity” value (HepG2 cells; 10 μM, 30 min treatment, time 0, pNPV substrate) was at least 90%, the “reactivation rate slower than CES1 inhibited by URB597” value (CES1 [2]) was 4.5 x and the “t1/2 (half life of reactivation)” value (CES1 [2]) was 49 ± 15 h and 49 h and 49 ± 15^b h.
With chlorpyrifos oxon the “more reactive toward CES1 than JZL184” value (CES1 [3]) was 500 x.

— PMC3470872 (Biochemical pharmacology, 2012)
